Test results as given in patent US9527885B2, “Hepatitis C virus inhibitors” (BRISTOL-MYERS SQUIBB COMPANY, priority 2011, dated 2016).

Columns and labels:
[1] = test system: HCV genotype 1a (H77 strain) replicon in HUH-7 cells; experiment: HCV replicon luciferase reporter assay, genotype 1a; format: cell-based; settings: Hepatitis C virus, Huh-7, 72 h, HCV genotype 1a replicon luciferase, 3 days incubation, range class, read-out: LE_1a (EC50, range)
In short: (§1)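 Twenty-point, threefold compound titrations (0.5% DMSO) were incubated 3 days at 37 °C with 3.0×10^3 HUH-7 cells/well in 4% FCS. The cells stably carried luciferase replicons: genotype 1b Con1 (S1179I) or 1a H77 (NS3 P1496L, NS5A S2204I). Renilla signal was read after 2 h with 7.5 μM EnduRen, and EC50 was taken from a four-parameter logistic fit. Cytotoxicity (CC50) was measured by Cell Titer-Blue, 8 h.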

[2] = test system: HCV genotype 1b (Con1) replicon in HUH-7 cells; experiment: HCV replicon luciferase reporter assay, genotype 1b; format: cell-based; settings: Hepatitis C virus, 72 h, HCV genotype 1b replicon luciferase, 3 days incubation, range class, read-out: LE_1b (EC50, range)
In short: as §1

| Structure (SMILES) | EC50 [1] | EC50 [2] |
| --- | --- | --- |
| CC[C@@H]1C[C@H](C)CC/C=C\[C@@H]2C[C@@]2(C(=O)NS(=O)(=O)C2(CF)CC2)NC(=O)[C@@H]2C[C@@H](Oc3nccc4c5c(ccc34)N(C)CCO5)CN2C(=O)[C@H]1NC(=O)OC(C)(C)C(C)(F)F [Compound 5324, 3,3-difluoro-2-methylbutan-2-yl ((2R,6S,7R,9R,13aS,14aR,16aS,Z)-7-ethyl-14a-(((1-(fluoromethyl)cyclopropyl)sulfonyl)carbamoyl)-9-methyl-2-((4-methyl-3,4-dihydro-2H-[1,4]oxazino[2,3-f]isoquinolin-7-yl)oxy)-5,16-dioxo-1,2,3,5,6,7,8,9,10,11,13a,14,14a,15,16,16a-hexadecahydrocyclopropa[e]pyrrolo[1,2-a][1,4]diazacyclopentadecin-6-yl)carbamate] | < 5.46 nM | < 5.46 nM |
| CC[C@@H]1C[C@H](C)CC/C=C\[C@@H]2C[C@@]2(C(=O)NS(=O)(=O)C2(C)CC2)NC(=O)[C@@H]2C[C@@H](Oc3nc4c(c5ccccc35)OCCC4)CN2C(=O)[C@H]1NC(=O)OC(C)(C)C(F)(F)F [Compound 6028, 1,1,1-trifluoro-2-methylpropan-2-yl ((2R,6S,7R,9R,13aS,14aR,16aS,Z)-2-((3,4-dihydro-2H-pyrano[3,2-c]isoquinolin-6-yl)oxy)-7-ethyl-9-methyl-14a-(((1-methylcyclopropyl)sulfonyl)carbamoyl)-5,16-dioxo-1,2,3,5,6,7,8,9,10,11,13a,14,14a,15,16,16a-hexadecahydrocyclopropa[e]pyrrolo[1,2-a][1,4]diazacyclopentadecin-6-yl)carbamate] | < 5.46 nM | < 5.46 nM |
| C[C@@H]1CC/C=C\[C@@H]2C[C@@]2(C(=O)NS(=O)(=O)C2(CF)CC2)NC(=O)[C@@H]2C[C@@H](Oc3nc4c(c5ccccc35)OCCC4)CN2C(=O)[C@@H](NC(=O)OC(C)(C)C(C)(F)F)[C@H](C)C1 [Compound 6032, 3,3-difluoro-2-methylbutan-2-yl ((2R,6S,7R,9R,13aS,14aR,16aS,Z)-2-((3,4-dihydro-2H-pyrano[3,2-c]isoquinolin-6-yl)oxy)-14a-(((1-(fluoromethyl)cyclopropyl)sulfonyl)carbamoyl)-7,9-dimethyl-5,16-dioxo-1,2,3,5,6,7,8,9,10,11,13a,14,14a,15,16,16a-hexadecahydrocyclopropa[e]pyrrolo[1,2-a][1,4]diazacyclopentadecin-6-yl)carbamate] | < 5.46 nM | < 5.46 nM |
